Laboratory results published in PubChem BioAssay AID2351 (The Scripps Research Institute Molecular Screening Center, 2010).
Calls of active or inactive are those of the source. The rule behind the calls is not given here.

Target: Sphingosine 1-phosphate receptor 1 (Homo sapiens) (UniProt P21453)
Experiment: PubChem AID 2351
Conditions: S1P1-expressing cells, fluorescence antagonist assay

Chain of Sphingosine 1-phosphate receptor 1 (Homo sapiens) (P21453 whole entry, looked up): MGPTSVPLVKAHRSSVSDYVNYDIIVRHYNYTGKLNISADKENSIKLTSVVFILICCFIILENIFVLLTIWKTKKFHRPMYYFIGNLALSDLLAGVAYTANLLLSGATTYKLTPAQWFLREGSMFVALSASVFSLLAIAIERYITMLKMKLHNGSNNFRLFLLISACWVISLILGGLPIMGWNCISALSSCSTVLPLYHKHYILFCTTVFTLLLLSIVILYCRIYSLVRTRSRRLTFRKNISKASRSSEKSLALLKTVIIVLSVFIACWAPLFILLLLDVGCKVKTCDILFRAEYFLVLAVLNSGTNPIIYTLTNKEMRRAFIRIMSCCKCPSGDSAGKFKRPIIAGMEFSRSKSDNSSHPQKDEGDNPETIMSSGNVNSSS

IC50: > 25 µM (inactive)
Structure (SMILES): Cc1cccc(C)c1NC(=O)c1ccc(-c2cc(Cl)ccc2Cl)o1
